According to the SangsterLogP compilation:

| SMILES | logP |
| --- | --- |
| ClCC(Cl)CCC(Cl)C(Cl)CCC(Cl)CC(Cl)(Cl)Cl (configuration not stated) | 5.4 |
| ClCC(Cl)CCCCCCC(Cl)CCl (configuration not stated) | 5.01 |
| ClC(CCCCCCC(Cl)CC(Cl)(Cl)Cl)CC(Cl)(Cl)Cl (configuration not stated) | 7.75 |
| ClC(CCCCCC(Cl)CC(Cl)(Cl)Cl)CC(Cl)(Cl)Cl (configuration not stated) | 7.23 |
| ClC(CCC(Cl)C(Cl)CCC(Cl)CC(Cl)(Cl)Cl)CC(Cl)(Cl)Cl (configuration not stated) | 6.72 |
| ClCC(Cl)CCC(Cl)C(Cl)(Cl)CCC(Cl)CCl (configuration not stated) | 4.2 |
| ClC(CCCCC(Cl)CC(Cl)(Cl)Cl)CC(Cl)(Cl)Cl (configuration not stated) | 6.71 |
| ClCC(Cl)CCCCCCC(Cl)CC(Cl)(Cl)Cl (configuration not stated) | 6.42 |

Second part, the compound after the results:

| logP | SMILES |
| --- | --- |
| 4.93 | CCCCC(Cl)C(Cl)CCC(Cl)CCl (configuration not stated) |
| 4.4 | CC(Cl)CCC(Cl)C(Cl)CCC(C)Cl (configuration not stated) |
| 4.02 | ClCC(Cl)CCC(Cl)C(Cl)CCC(Cl)CCl (configuration not stated) |
| 4.19 | CC(Cl)CCC(Cl)C(Cl)CCC(Cl)CCl (configuration not stated) |
